The test system of data set [1] is P388. Description: Cytotoxicity against mouse P388 cells. The format is functional. As to conditions: read-out: ED50 (the source's name).
For data set [2], the system named is BXPC-3. The data set can be described thus: Cytotoxicity against human BxPC3 cells. Format: functional.
The test system of data set [3] is MCF7. Description: Cytotoxicity against human MCF7 cells. The format is functional.
Data set [4] concerns SF-268. Description: Cytotoxicity against human SF268 cells. The format is functional.
For data set [5], the system named is NCI-H460. The data set can be described thus: Cytotoxicity against human NCI-H460 cells. The format is functional.
In data set [6] the test system is KM-20L2. The data set can be described thus: Cytotoxicity against human KM20L2 cells. Format: functional.
The test system of data set [7] is DU-145. The data set can be described thus: Cytotoxicity against human DU145 cells. Format: functional.
Data set [8] in a line: Solubility in water. The format is physicochemical.

The source of these data is ChEMBL document CHEMBL1146488, “Antineoplastic agents. 511. Direct phosphorylation of phenpanstatin and pancratistatin” (J Nat Prod, 2004).

Converted amounts (≈) assume the structure as drawn.

For the compound `O=C1N[C@H]2[C@@H]3OP(=O)([O-])O[C@@H]3[C@@H](O)[C@H](O)[C@@H]2c2cc3c(c(O)c21)OCO3.[Na+]`, the EC50 in data set [1] worked out at 3.33 µg/mL. For the same compound, the GI50 (as a rule, the concentration that inhibits growth by half) was 3.3 µg/mL in data set [2]; 2.9 µg/mL in data set [3]; 2.9 µg/mL in data set [4]; 3.8 µg/mL in data set [5]; 3.7 µg/mL in data set [6]; 2.3 µg/mL in data set [7].

`C=C[C@H]1CN2CC[C@H]1C[C@H]2[C@H](O)c1ccnc2ccc(OC)cc12.O=C1N[C@H]2[C@H](OP(=O)(O)O)[C@H](O)[C@@H](O)[C@H](O)[C@@H]2c2cc3c(c(O)c21)OCO3`: the EC50 in data set [1] was determined as 0.066 µg/mL. Moreover, the GI50 in data set [2] turned out to be 0.23 µg/mL; in data set [3], 0.35 µg/mL; in data set [4] it was 0.28 µg/mL; in data set [5] it was 0.31 µg/mL; in data set [6] it was 0.22 µg/mL; in data set [7], 0.15 µg/mL.

For the compound `O=C1N[C@H]2[C@H](OP(=O)([O-])[O-])[C@H](O)[C@@H](O)[C@H](O)[C@@H]2c2cc3c(c(O)c21)OCO3.[Mg+2]`, the EC50 in data set [1] stood at 0.02 µg/mL. The 50% growth inhibitory concentration (GI50) is 0.4 µg/mL in data set [2]; 0.44 µg/mL in data set [3]; 0.36 µg/mL in data set [4]; 0.42 µg/mL in data set [5]; 0.36 µg/mL in data set [6]; 0.22 µg/mL in data set [7].

Turning to `O=C1N[C@H]2[C@H](OP(=O)([O-])[O-])[C@H](O)[C@@H](O)[C@H](O)[C@@H]2c2cc3c(c(O)c21)OCO3.[Zn+2]`, the EC50 in data set [1] amounted to 0.17 µg/mL. For the same compound, the GI50 in data set [2] came to 0.27 µg/mL; in data set [3], 0.47 µg/mL; in data set [4] it was 0.38 µg/mL; in data set [5], 0.42 µg/mL; in data set [6] it was 0.3 µg/mL; in data set [7] it was 0.17 µg/mL.

`O=C1N[C@H]2[C@H](OP(=O)([O-])O)[C@H](O)[C@@H](O)[C@H](O)[C@@H]2c2cc3c(c(O)c21)OCO3.[K+]`: in data set [1], the EC50 stood at 0.025 µg/mL. Moreover, the GI50 in data set [2] is 0.45 µg/mL; in data set [3] it was 0.46 µg/mL; in data set [4] it was 0.39 µg/mL; in data set [5], 0.4 µg/mL; in data set [6], 0.3 µg/mL; in data set [7], 0.22 µg/mL.

With `C1CNCCN1.O=C1N[C@H]2[C@H](OP(=O)(O)O)[C@H](O)[C@@H](O)[C@H](O)[C@@H]2c2cc3c(c(O)c21)OCO3`, the EC50 in data set [1] turned out to be 0.019 µg/mL. The GI50 in data set [2] amounted to 0.31 µg/mL; in data set [3], 0.38 µg/mL; in data set [4], 0.27 µg/mL; in data set [5], 0.35 µg/mL; in data set [6] it was 0.24 µg/mL; in data set [7], 0.21 µg/mL.

Regarding `C1COCCN1.O=C1N[C@H]2[C@H](OP(=O)(O)O)[C@H](O)[C@@H](O)[C@H](O)[C@@H]2c2cc3c(c(O)c21)OCO3`, the EC50 in data set [1] was found to be 0.27 µg/mL. Besides, the 50% growth inhibitory concentration (GI50) worked out at 0.29 µg/mL in data set [2]; 0.4 µg/mL in data set [3]; 0.38 µg/mL in data set [4]; 0.46 µg/mL in data set [5]; 0.37 µg/mL in data set [6]; 0.18 µg/mL in data set [7].

Consider `O=C1N[C@H]2[C@H](OP(=O)(O)O)[C@H](O)[C@@H](O)[C@H](O)[C@@H]2c2cc3c(c(O)c21)OCO3.c1c[nH]cn1`, for which the EC50 in data set [1] is 0.063 µg/mL. Besides, the concentration for 50% growth inhibition (GI50) in data set [2] came out at 0.25 µg/mL; in data set [3] it was 0.33 µg/mL; in data set [4], 0.21 µg/mL; in data set [5] it was 0.25 µg/mL; in data set [6] it was 0.13 µg/mL; in data set [7], 0.13 µg/mL.

`O=C1N[C@H]2[C@H](O)[C@H](O)[C@@H](O)[C@H](O)[C@@H]2c2cc3c(c(OP(=O)([O-])[O-])c21)OCO3.[Na+].[Na+]`: the EC50 in data set [1] is 0.24 µg/mL. Besides, the concentration for 50% growth inhibition (GI50) in data set [2] is 0.2 µg/mL; in data set [3] it was 0.2 µg/mL; in data set [4], 0.079 µg/mL; in data set [5] it was 0.19 µg/mL; in data set [6], 0.17 µg/mL; in data set [7], 0.026 µg/mL. For the same compound, in data set [8], the solubility (in general, how much of the substance goes into solution per volume) worked out at 20 µg/mL.

With `O=C1N[C@H]2[C@H](OP(=O)([O-])O)[C@H](O)[C@@H](O)[C@H](O)[C@@H]2c2cc3c(c(O)c21)OCO3.[Na+]`, the EC50 in data set [1] came out at 0.018 µg/mL. Also, the 50% growth inhibitory concentration (GI50) in data set [2] is 0.18 µg/mL; in data set [3], 0.18 µg/mL; in data set [4] it was 0.12 µg/mL; in data set [5], 0.38 µg/mL; in data set [6], 0.24 µg/mL; in data set [7], 0.94 µg/mL.

Turning to `O=C1N[C@H]2[C@H](OP(=O)([O-])O)[C@H](O)[C@@H](O)[C@H](O)[C@@H]2c2cc3c(c(O)c21)OCO3.[Li+]`, the EC50 in data set [1] stood at 0.036 µg/mL. Besides, the 50% growth inhibitory concentration (GI50) in data set [2] stood at 0.3 µg/mL; in data set [3] it was 0.39 µg/mL; in data set [4] it was 0.28 µg/mL; in data set [5], 0.35 µg/mL; in data set [6] it was 0.25 µg/mL; in data set [7] it was 0.2 µg/mL.

Consider `C=C[C@H]1CN2CC[C@H]1C[C@@H]2[C@@H](O)c1ccnc2ccc(OC)cc12.O=C1N[C@H]2[C@H](OP(=O)(O)O)[C@H](O)[C@@H](O)[C@H](O)[C@@H]2c2cc3c(c(O)c21)OCO3`, for which the EC50 in data set [1] turned out to be 0.21 µg/mL. Besides, the concentration for 50% growth inhibition (GI50) in data set [2] was found to be 0.34 µg/mL; in data set [3] it was 0.38 µg/mL; in data set [4] it was 0.27 µg/mL; in data set [5], 0.36 µg/mL; in data set [6] it was 0.23 µg/mL; in data set [7] it was 0.2 µg/mL.

`O=C1N[C@H]2[C@H](OP(=O)([O-])[O-])[C@H](O)[C@@H](O)[C@H](O)[C@@H]2c2cc3c(c(O)c21)OCO3.[Ca+2]`: the EC50 in data set [1] is 0.21 µg/mL. The GI50 in data set [2] was determined as 0.25 µg/mL; in data set [3] it was 0.36 µg/mL; in data set [4] it was 0.26 µg/mL; in data set [5], 0.27 µg/mL; in data set [6], 0.23 µg/mL; in data set [7], 0.12 µg/mL.

In the case of `O=C(O[C@H]1[C@H](O)[C@H]2OP(=O)([O-])O[C@H]2[C@@H]2NC(=O)c3c(cc4c(c3O)OCO4)[C@H]21)c1ccccc1.[Na+]`, the EC50 in data set [1] turned out to be 0.061 µg/mL. Further, the concentration for 50% growth inhibition (GI50) in data set [2] is 0.25 µg/mL; in data set [3] it was 0.041 µg/mL; in data set [4], 0.17 µg/mL; in data set [5], 0.029 µg/mL; in data set [6], 0.13 µg/mL; in data set [7], 0.13 µg/mL.

Consider `O=C1N[C@H]2[C@H](OP(=O)(O)O)[C@H](O)[C@@H](O)[C@H](O)[C@@H]2c2cc3c(c(O)c21)OCO3`, for which, in data set [1], the EC50 came to 0.047 µg/mL (≈ 0.116 µM). In addition, the GI50 in data set [2] worked out at 0.36 µg/mL (≈ 0.888 µM); in data set [3] it was 0.43 µg/mL (≈ 1.06 µM); in data set [4], 0.35 µg/mL (≈ 0.864 µM); in data set [5] it was 0.42 µg/mL (≈ 1.04 µM); in data set [6], 0.33 µg/mL (≈ 0.814 µM); in data set [7], 0.2 µg/mL (≈ 0.494 µM).

For `O=C1N[C@@H]2C(=C[C@H](O)[C@@H](O)[C@H]2O)c2cc3c(c(O)c21)OCO3` [NARCICLASINE], in data set [1], the EC50 worked out at 0.013 µg/mL (≈ 0.0423 µM). In addition, the concentration for 50% growth inhibition (GI50) was found to be 0.0035 µg/mL (≈ 0.0114 µM) in data set [2]; 0.0032 µg/mL (≈ 0.0104 µM) in data set [3]; 0.0031 µg/mL (≈ 0.0101 µM) in data set [4]; 0.0084 µg/mL (≈ 0.0273 µM) in data set [5]; 0.0032 µg/mL (≈ 0.0104 µM) in data set [6]; 0.0032 µg/mL (≈ 0.0104 µM) in data set [7].

Regarding `O=C1N[C@H]2[C@H](O)[C@H](O)[C@@H](O)[C@H](O)[C@@H]2c2cc3c(c(O)c21)OCO3` [PANCRATISTATIN], in data set [1], the EC50 is 0.017 µg/mL (≈ 0.0523 µM). Further, the GI50 came to 0.02 µg/mL (≈ 0.0615 µM) in data set [2]; 0.023 µg/mL (≈ 0.0707 µM) in data set [3]; 0.014 µg/mL (≈ 0.043 µM) in data set [4]; 0.032 µg/mL (≈ 0.0984 µM) in data set [5]; 0.025 µg/mL (≈ 0.0769 µM) in data set [6]; 0.015 µg/mL (≈ 0.0461 µM) in data set [7]. In data set [8], this compound yielded a solubility of 53 µg/mL (≈ 163 µM).

Consider `O=C(O[C@H]1[C@H](O)[C@@H](O)[C@@H](O)[C@@H]2NC(=O)c3c(cc4c(c3O)OCO4)[C@H]21)c1ccccc1` [PHENPANSTATIN], for which the EC50 in data set [1] came to 0.0016 µg/mL (≈ 0.00373 µM). Further, the GI50 in data set [2] came out at 0.0019 µg/mL (≈ 0.00442 µM); in data set [3] it was 0.00031 µg/mL (≈ 0.000722 µM); in data set [4] it was 0.00055 µg/mL (≈ 0.00128 µM); in data set [5], 0.0001 µg/mL (≈ 0.000233 µM); in data set [6] it was 0.00037 µg/mL (≈ 0.000862 µM); in data set [7] it was 0.00021 µg/mL (≈ 0.000489 µM).

For the compound `O=C1N[C@@H]2C(=C[C@H](O)[C@H]3OP(=O)([O-])O[C@H]32)c2cc3c(c(O)c21)OCO3.[Na+]` [SODIUM NARCISTATIN], in data set [1], the EC50 came out at 0.012 µg/mL. In addition, the GI50 was 0.069 µg/mL in data set [2]; 0.059 µg/mL in data set [3]; 0.047 µg/mL in data set [4]; 0.058 µg/mL in data set [5]; 0.06 µg/mL in data set [6]; 0.031 µg/mL in data set [7].
